Measurements: patent publication US6051389A, “Enzyme sensor” (Radiometer Medical A/S, priority 1996, dated 2000)
Where a name gives a salt, the structure may show the parent alone.

Test system: lactate oxidase
Assay: Enzyme Stability Test: oxalate as stabilising agent for lactate oxidase in S4932 rinse solution (Example 5)
Format: biochemical, Pediococcus
Description: Colorimetric lactate oxidase assay
The formation of H2 O2 is determined in a peroxidase (POD) assay system where a quinonimine dye is formed. The amount of formed quinonimine dye is determined spectrophotometically at 490 nm.
100 μL of Reagent A is added to a well of a microtiterplate (Immunoplate, Nunc, Roskilde, Denmark). The colour reaction is started by adding 100 μL of the Enzyme Solution. Immediately afterwards, the microtiterplate is placed in the plate-holder of a THERMOmax incubator (Molecular Devices, Menlo Park, Calif., USA) pre-set to: 37° C., kinetic mode, lag-time 5 min., reading time 15 min., and automix.
The enzymatic activity of lactate oxidase (and also other enzymes) is decreasing exponentially. Therefore, the half-life period (t1/2) for the enzymatic activity will be independent of the initial concentration, and, thus, t1/2 is an excellent expression for the stability of an enzyme under various conditions.
The enzymatic activity is determined (as described in the Enzyme Activity Test above) for the enzyme composition in question at least four times over a relevant period, e.g. every day for at least four days (day 0 to day 3). t1/2 is then calculated following standard mathematical methods.
A solution of 0.04 U/mL lactate oxidase in S4932 rinse solution (Radiometer Medical A/S, Copenhagen, Denmark) was prepared. Disodium oxalate corresponding to a total concentration of 1, 2, 4, 8, and 16 mM of oxalate was added. The enzymatic activity of the solutions was determined five times over a period of 13 days. The enzymatic stability of these solutions was compared with the enzymatic stability of a solution without oxalate.

Structure (SMILES): O=C(O)C(=O)O [Oxalate, disodium oxalate]
- Enzymatic Activity (oxalate 1 mM, time 0 h, 0.04 U/mL lactate oxidase): 13.76 mOD/min.
- Enzymatic Activity (oxalate 1 mM, time 68.5 h): 11.47 mOD/min.
- Enzymatic Activity (oxalate 1 mM, time 148 h): 11.01 mOD/min.
- Enzymatic Activity (oxalate 1 mM, time 199 h): 9.89 mOD/min.
- Enzymatic Activity (oxalate 1 mM, time 319 h): 8.67 mOD/min.
- Enzymatic Activity (oxalate 2 mM, time 0 h, 0.04 U/mL lactate oxidase): 13.63 mOD/min.
- Enzymatic Activity (oxalate 2 mM, time 68.5 h): 12.08 mOD/min.
- Enzymatic Activity (oxalate 2 mM, time 148 h): 11.07 mOD/min.
- Enzymatic Activity (oxalate 2 mM, time 199 h): 9.92 mOD/min.
- Enzymatic Activity (oxalate 2 mM, time 319 h): 8.63 mOD/min.
- Enzymatic Activity (oxalate 4 mM, time 0 h, 0.04 U/mL lactate oxidase): 12.87 mOD/min.
- Enzymatic Activity (oxalate 4 mM, time 68.5 h): 11.90 mOD/min.
- Enzymatic Activity (oxalate 4 mM, time 148 h): 11.36 mOD/min.
- Enzymatic Activity (oxalate 4 mM, time 199 h): 10.36 mOD/min.
- Enzymatic Activity (oxalate 4 mM, time 319 h): 9.60 mOD/min.
- Enzymatic Activity (oxalate 8 mM, time 0 h, 0.04 U/mL lactate oxidase): 11.86 mOD/min.
- Enzymatic Activity (oxalate 8 mM, time 68.5 h): 11.34 mOD/min.
- Enzymatic Activity (oxalate 8 mM, time 148 h): 10.86 mOD/min.
- Enzymatic Activity (oxalate 8 mM, time 199 h): 9.84 mOD/min.
- Enzymatic Activity (oxalate 8 mM, time 319 h): 9.33 mOD/min.
- Enzymatic Activity (oxalate 16 mM, time 0 h, 0.04 U/mL lactate oxidase): 10.37 mOD/min.
- Enzymatic Activity (oxalate 16 mM, time 68.5 h): 10.15 mOD/min.
- Enzymatic Activity (oxalate 16 mM, time 148 h): 9.72 mOD/min.
- Enzymatic Activity (oxalate 16 mM, time 199 h): 8.81 mOD/min.
- Enzymatic Activity (oxalate 16 mM, time 319 h): 8.65 mOD/min.
